{"source": "BindingDB's records for patent US12459916", "about": "(Bayer Pharma Aktiengesellschaft, 2025)", "target": "T1, Interleukin-1 receptor-associated kinase 4 (UniProt A0A8C0TG75)", "T1 sequence (A0A8C0TG75 whole entry)": "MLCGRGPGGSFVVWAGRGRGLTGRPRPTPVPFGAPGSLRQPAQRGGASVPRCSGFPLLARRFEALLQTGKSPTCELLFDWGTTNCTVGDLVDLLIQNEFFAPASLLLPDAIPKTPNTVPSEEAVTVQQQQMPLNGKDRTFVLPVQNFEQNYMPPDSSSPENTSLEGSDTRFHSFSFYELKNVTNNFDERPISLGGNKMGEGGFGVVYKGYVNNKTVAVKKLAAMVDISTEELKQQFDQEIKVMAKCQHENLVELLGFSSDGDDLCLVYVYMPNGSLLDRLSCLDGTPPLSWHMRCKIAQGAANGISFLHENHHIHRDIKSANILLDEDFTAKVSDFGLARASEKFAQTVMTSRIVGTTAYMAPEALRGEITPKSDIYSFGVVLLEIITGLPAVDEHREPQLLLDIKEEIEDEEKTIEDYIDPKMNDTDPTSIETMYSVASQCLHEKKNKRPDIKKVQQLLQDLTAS", "experiment": "Canine IRAK4 Kinase Assay", "description": "50 nl of the respective solution were pipetted into a black low-volume 384-well microtitre plate (Greiner Bio-One, Frickenhausen, Germany), 2 μl of a solution of Irak4 in assay buffer [50 mM HEPES pH 7.5, 5 mM MgCl2, 1.0 mM dithiothreitol, 30 μM activated sodium orthovanadate, 0.1% (w/v) of bovine gamma-globulin (BGG) 0.04% (v/v) nonidet-P40 (Sigma)] were added and the mixture was incubated for 15 min to allow prebinding of the substances to the enzyme prior to the kinase reaction. […] The concentration of the Irak4 was adjusted to the respective activity of the enzyme and set such that the assay was carried out in the linear range. Typical concentrations were in the order of about 0.1 nM."}
{"smiles": "CC(C)(O)CCn1cc2cc(NC(=O)c3cccc(C(F)F)n3)c(C(C)(C)O)cc2n1", "note": "[US12459916, Example 13]", "values": [{"measurement": "IC50", "value": 1.75, "unit": "nM"}]}
{"smiles": "Cc1nc(C(=O)Nc2cc3cn(CCC(C)(C)O)nc3cc2C(C)(C)O)ccc1F", "note": "[US12459916, Example 19]", "values": [{"measurement": "IC50", "value": 8.46, "unit": "nM"}]}
